{"source": "patent US20170037028A1", "about": "(BAYER PHARMA AKTIENGESELLSCHAFT, priority 2013, published 2017)"}
{"molecular_target": "T1, GLUT1 (Homo sapiens, UniProt P11166)", "T1 sequence (P11166 1-492)": "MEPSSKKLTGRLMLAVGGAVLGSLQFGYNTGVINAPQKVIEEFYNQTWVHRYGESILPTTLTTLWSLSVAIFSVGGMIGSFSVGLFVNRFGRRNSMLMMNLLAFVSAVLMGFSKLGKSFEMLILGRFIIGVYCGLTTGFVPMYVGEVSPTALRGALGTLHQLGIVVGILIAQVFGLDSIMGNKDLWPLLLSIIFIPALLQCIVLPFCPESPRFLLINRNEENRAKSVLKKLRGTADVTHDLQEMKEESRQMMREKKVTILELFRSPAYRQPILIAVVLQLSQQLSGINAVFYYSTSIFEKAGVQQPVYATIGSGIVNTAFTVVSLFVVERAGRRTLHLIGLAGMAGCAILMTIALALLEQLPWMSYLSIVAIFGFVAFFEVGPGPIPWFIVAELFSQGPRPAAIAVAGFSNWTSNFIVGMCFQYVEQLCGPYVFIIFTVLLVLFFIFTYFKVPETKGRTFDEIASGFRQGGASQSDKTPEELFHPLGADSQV", "experiment": "Indirect measurement of GLUT1 activity by quantification of intracellular ATP levels (glucose induced ATP increase)", "assay_type": "cell-based", "parameters": "endogenous in cells; host or cells: DLD1 or CHO-K1", "details": "read-out: IC50 regarding glucose induced ATP increase (GLUT1 inhibition)", "in_short": "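Intracellular ATP was measured by CellTiter-Glo luminescence as an indirect readout of transport: glucose-driven for GLUT1, fructose-driven for GLUT2. DLD1 or CHO-K1 cells were used alongside an oxidative phosphorylation inhibitor. Beforehand, cells were held overnight in glucose-free 1% FCS medium to deplete ATP.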", "units": {"IC50": "nM"}}
{"smiles": "CNC(=O)c1c(NC(=O)c2cc(C(N)=O)nc3ccccc23)c(C)nn1Cc1ccc(F)cc1", "note": "[Example 1258]", "IC50": 2060}
{"smiles": "C=CCNC(=O)c1ccc(Cn2nc(C)c(NC(=O)c3cc(C(F)(F)F)nc4ccc(Br)cc34)c2C)cc1", "note": "[Example 1018]", "IC50": 1.9}
{"smiles": "Cc1nn(Cc2ccc(C(F)(F)F)cc2)c(C)c1NC(=O)c1cc(C(N)=O)nc2cc(F)ccc12", "note": "[Example 1599]", "IC50": 6.5}
{"smiles": "Cc1nn(Cc2ccc(F)c(Cl)c2)c(C)c1NC(=O)c1cc(C(F)(F)F)nc2ccc(Br)cc12", "note": "[Example 190, 6-bromo-N-[1-(3-chloro-4-fluorobenzyl)-3,5-dimethyl-1H-pyrazol-4-yl]-2-(trifluoromethyl)quinoline-4-carboxamide]", "IC50": 171}
{"smiles": "Cc1nn(Cc2ccc(C#N)cc2F)c(C)c1NC(=O)c1cc(C(N)=O)nc2cc(F)ccc12", "note": "[Example 300, N^4-[1-(4-cyano-2-fluorobenzyl)-3,5-dimethyl-1H-pyrazol-4-yl]-7-fluoroquinoline-2,4-dicarboxamide]", "IC50": 0.5}
{"smiles": "Cc1c(NC(=O)c2cc(C(N)=O)nc3cc(F)c(Cl)cc23)c(C(C)C)nn1Cc1ccc(C#N)cc1", "note": "[Example 324, 6-chloro-N^4-[1-(4-cyanobenzyl)-3-isopropyl-5-methyl-1H-pyrazol-4-yl]-7-fluoroquinoline-2,4-dicarboxamide]", "IC50": 1.9}
{"smiles": "Cc1c(NC(=O)c2cc(C(N)=O)nc3cccc(F)c23)c(C(F)(F)F)nn1Cc1ccc(C(C)(C)C#N)cc1", "note": "[Example 1597]", "IC50": 89.9}
{"smiles": "CCS(=O)(=O)N1CCC(Cn2nc(C)c(NC(=O)c3cc(C(N)=O)nc4ccccc34)c2C)CC1", "note": "[Example 407, N^4-(1-{[1-(ethylsulfonyl)piperidin-4-yl]methyl}-3,5-dimethyl-1H-pyrazol-4-yl)quinoline-2,4-dicarboxamide]", "IC50": 2.1}
{"smiles": "Cc1ccc(C#N)c(Cn2nc(C)c(NC(=O)c3cc(C(N)=O)nc4cc(F)c(Cl)cc34)c2C)c1", "note": "[Example 1699]", "IC50": 11.3}
{"smiles": "Cc1nn(Cc2ccccc2C#N)c(C)c1NC(=O)c1cc(C(F)(F)F)nc2cc(F)c(F)cc12", "note": "[Example 175, N-[1-(2-cyanobenzyl)-3,5-dimethyl-1H-pyrazol-4-yl]-6,7-difluoro-2-(trifluoromethyl)quinoline-4-carboxamide]", "IC50": 70.7}
{"smiles": "Cc1nn(Cc2ccncc2C#N)c(C)c1NC(=O)c1cc(C(N)=O)nc2cc(F)c(Cl)cc12", "note": "[Example 285, 6-chloro-N^4-{1-[(3-cyanopyridin-4-yl)methyl]-3,5-dimethyl-1H-pyrazol-4-yl}-7-fluoroquinoline-2,4-dicarboxamide]", "IC50": 3.4}
{"smiles": "Cc1nn(Cc2ccc(C(=O)NCC3CCO3)cn2)c(C)c1NC(=O)c1cc(C(F)(F)F)nc2ccc(Br)cc12", "note": "(racemic) [Example 1124]", "IC50": 72.6}
{"smiles": "Cc1nn(CC2CCCCC2)c(C)c1NC(=O)c1cc(C(F)(F)F)nc2cc(F)c(F)cc12", "note": "[Example 195, N-[1-(cyclohexylmethyl)-3,5-dimethyl-1H-pyrazol-4-yl]-6,7-difluoro-2-(trifluoromethyl)quinoline-4-carboxamide]", "IC50": 272}
{"smiles": "Cc1nn(Cc2ncccc2C#N)c(C)c1NC(=O)c1cc(C(N)=O)nc2ccccc12", "note": "[Example 1082]", "IC50": 28.2}
{"smiles": "Cc1cc2c(C(=O)Nc3c(C)nn(Cc4ccc(C#N)cc4)c3C)cc(C(N)=O)nc2cc1F", "note": "[Example 256, N^4-[1-(4-cyanobenzyl)-3,5-dimethyl-1H-pyrazol-4-yl]-7-fluoro-6-methylquinoline-2,4-dicarboxamide]", "IC50": 2.4}
{"smiles": "CNC(=O)c1ccc(Cn2nc(C(F)(F)F)c(NC(=O)c3cc(C(N)=O)nc4cc(F)ccc34)c2C)cc1", "note": "[Example 370, 7-fluoro-N^4-{5-methyl-1-[4-(methylcarbamoyl)benzyl]-3-(trifluoromethyl)-1H-pyrazol-4-yl}quinoline-2,4-dicarboxamide]", "IC50": 12.8}
{"smiles": "COc1cc(C(=O)Nc2c(C)nn(Cc3ccc(C)cc3)c2C)c2ccccc2n1", "note": "[Example 61, N-[3,5-dimethyl-1-(4-methylbenzyl)-1H-pyrazol-4-yl]-2-methoxyquinoline-4-carboxamide]", "IC50": 110}
{"smiles": "Cc1ccccc1Cn1nc(C)c(NC(=O)c2cc(C(F)(F)F)nc3ccc(Br)cc23)c1C", "note": "[Example 24, 6-bromo-N-[3,5-dimethyl-1-(2-methylbenzyl)-1H-pyrazol-4-yl]-2-(trifluoromethyl)quinoline-4-carboxamide]", "IC50": 15.5}
{"smiles": "Cc1c(NC(=O)c2cc(C(N)=O)nc3cc(F)c(Cl)cc23)c(C(F)(F)F)nn1Cc1ncco1", "note": "[Example 1547]", "IC50": 24}
{"smiles": "Cc1cc(Cn2nc(C)c(NC(=O)c3cc(C(N)=O)nc4ccccc34)c2C)no1", "note": "[Example 1503]", "IC50": 93.2}
{"smiles": "Cc1ccc2nc(C)cc(C(=O)Nc3c(C)nn(Cc4ccccc4C)c3C)c2c1", "note": "[Example 111, N-[3,5-dimethyl-1-(2-methylbenzyl)-1H-pyrazol-4-yl]-2,6-dimethylquinoline-4-carboxamide]", "IC50": 708}
{"smiles": "Cc1nn(Cc2cccnc2C#N)c(C)c1NC(=O)c1cc(C(F)(F)F)nc2ccc(Br)cc12", "note": "[Example 1118]", "IC50": 63.5}
{"smiles": "Cc1nn(Cc2ccc(C(C)C)cc2)c(C)c1NC(=O)c1cc(C(N)=O)nc2ccccc12", "note": "[Example 1405]", "IC50": 8.2}
{"smiles": "Cc1ccc2nc(C)cc(C(=O)Nc3c(C)nn(Cc4ccccn4)c3C)c2c1", "note": "[Example 1261]", "IC50": 2290}
{"smiles": "Cc1nn(CC2CCOCC2)c(C)c1NC(=O)c1cc(C(F)(F)F)nc2cc(F)c(F)cc12", "note": "[Example 1262]", "IC50": 2290}
{"smiles": "Cc1cc(Cn2nc(C(F)(F)F)c(NC(=O)c3cc(C(N)=O)nc4cccc(F)c34)c2C)ccc1C#N", "note": "[Example 1694]", "IC50": 1.2}
{"smiles": "Cc1nn(Cc2ccc(C(=O)NCC(C)(C)O)cc2)c(C)c1NC(=O)c1cc(C(F)(F)F)nc2ccc(Br)cc12", "note": "[Example 1085]", "IC50": 31.2}
{"smiles": "Cc1nn(Cc2ccc(F)cc2)c(C)c1NC(=O)c1cc(C(F)(F)F)nc2ccc(-c3ccccc3)cc12", "note": "[Example 166, N-[1-(4-fluorobenzyl)-3,5-dimethyl-1H-pyrazol-4-yl]-6-phenyl-2-(trifluoromethyl)quinoline-4-carboxamide]", "IC50": 41.1}
{"smiles": "COc1cccc(Cn2nc(C)c(NC(=O)c3cc(C(N)=O)nc4cc(F)c(Cl)cc34)c2C)c1", "note": "[Example 1453]", "IC50": 1.4}
{"smiles": "Cc1nn(Cc2ccc(C(=O)NC(C)(C)C)cc2)c(C)c1NC(=O)c1cc(C(F)(F)F)nc2ccc(Br)cc12", "note": "[Example 1174]", "IC50": 203}
{"smiles": "Cc1nn(Cc2ccc(F)cc2)c(C)c1NC(=O)c1cc(C(N)=O)nc2ccc(F)cc12", "note": "[Example 229, 6-fluoro-N^4-[1-(4-fluorobenzyl)-3,5-dimethyl-1H-pyrazol-4-yl]quinoline-2,4-dicarboxamide]", "IC50": 4.6}
{"smiles": "Cc1nn(Cc2ccc(C#N)cc2)c(C)c1NC(=O)c1cc(C(N)=O)nc2cc(Cl)ccc12", "note": "[Example 260, 7-chloro-N^4-[1-(4-cyanobenzyl)-3,5-dimethyl-1H-pyrazol-4-yl]quinoline-2,4-dicarboxamide]", "IC50": 4.7}
{"smiles": "Cc1c(NC(=O)c2cc(C(N)=O)nc3cc(F)ccc23)c(C(F)(F)F)nn1Cc1ccc(F)c(F)c1", "note": "[Example 1396]", "IC50": 4.6}
{"smiles": "Cc1nn(Cc2ccc(C(=O)NCC(F)(F)F)cc2)c(C)c1NC(=O)c1cc(C(F)(F)F)nc2ccc(Br)cc12", "note": "[Example 1059]", "IC50": 15.6}
{"smiles": "Cc1nn(Cc2ccc(F)cc2)c(C)c1NC(=O)c1cc(N2CCOCC2)nc2ccccc12", "note": "[Example 198, N-[1-(4-fluorobenzyl)-3,5-dimethyl-1H-pyrazol-4-yl]-2-(morpholin-4-yl)quinoline-4-carboxamide]", "IC50": 438}
